Experimental data published in PubChem BioAssay (NCI).
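GI50 is the concentration that inhibits growth by half. TGI marks complete inhibition of growth.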

Key:
Assay in all cases: NCI-60 cell line screen, 384-well format
SK-MEL-28 melanoma = tested on: SK-MEL-28 melanoma
COLO 205 colon = tested on: COLO 205 colon
A498 renal = tested on: A498 renal
RXF 393 renal = tested on: RXF 393 renal
NCI/ADR-RES ovarian = tested on: NCI/ADR-RES ovarian
OVCAR-8 ovarian = tested on: OVCAR-8 ovarian
SK-MEL-5 melanoma = tested on: SK-MEL-5 melanoma
ACHN renal = tested on: ACHN renal
NCI-H23 lung = tested on: NCI-H23 lung
MOLT-4 leukemia = tested on: MOLT-4 leukemia
SR leukemia = tested on: SR leukemia
HT29 colon = tested on: HT29 colon
UACC-257 melanoma = tested on: UACC-257 melanoma
UO-31 renal = tested on: UO-31 renal
OVCAR-3 ovarian = tested on: OVCAR-3 ovarian
SK-OV-3 ovarian = tested on: SK-OV-3 ovarian
MDA-MB-435 melanoma = tested on: MDA-MB-435 melanoma
BT-549 breast = tested on: BT-549 breast
LOX IMVI melanoma = tested on: LOX IMVI melanoma
HOP-92 NSCLC = tested on: HOP-92 NSCLC
RPMI-8226 leukemia = tested on: RPMI-8226 leukemia
MALME-3M melanoma = tested on: MALME-3M melanoma
HCC-2998 colon = tested on: HCC-2998 colon
NCI-H522 lung = tested on: NCI-H522 lung
HCT-116 colon = tested on: HCT-116 colon
DU-145 prostate = tested on: DU-145 prostate
PC-3 prostate = tested on: PC-3 prostate
M14 melanoma = tested on: M14 melanoma
OVCAR-5 ovarian = tested on: OVCAR-5 ovarian
SNB-75 CNS = tested on: SNB-75 CNS
OVCAR-4 ovarian = tested on: OVCAR-4 ovarian
HS 578T breast = tested on: HS 578T breast
K-562 leukemia = tested on: K-562 leukemia
TK-10 renal = tested on: TK-10 renal
CAKI-1 renal = tested on: CAKI-1 renal
NCI-H322M lung = tested on: NCI-H322M lung
SF-539 CNS = tested on: SF-539 CNS
U251 glioblastoma = tested on: U251 glioblastoma
NCI-H226 lung = tested on: NCI-H226 lung
CCRF-CEM leukemia = tested on: CCRF-CEM leukemia
MCF7 breast = tested on: MCF7 breast
IGROV1 ovarian = tested on: IGROV1 ovarian
HCT-15 colon = tested on: HCT-15 colon
786-0 renal = tested on: 786-0 renal
NCI-H460 NSCLC = tested on: NCI-H460 NSCLC
SF-295 CNS = tested on: SF-295 CNS
HL-60(TB) leukemia = tested on: HL-60(TB) leukemia
EKVX NSCLC = tested on: EKVX NSCLC
SF-268 CNS = tested on: SF-268 CNS
SN12C renal = tested on: SN12C renal
MDA-MB-231 breast = tested on: MDA-MB-231 breast
T-47D breast = tested on: T-47D breast
A549 NSCLC = tested on: A549 NSCLC
HOP-62 NSCLC = tested on: HOP-62 NSCLC
KM12 colon = tested on: KM12 colon
SNB-19 CNS = tested on: SNB-19 CNS
MDA-MB-468 breast = tested on: MDA-MB-468 breast
SW-620 colon = tested on: SW-620 colon

Nc1ccccc1NC(=O)c1ccc(CNC(=O)OCc2cccnc2)cc1
GI50 (SK-MEL-28 melanoma): 234 nM
TGI (SK-MEL-28 melanoma): 493 nM
GI50 (COLO 205 colon): 775 nM
TGI (COLO 205 colon): 2420 nM
GI50 (A498 renal): 399 nM
TGI (A498 renal): 1860 nM
GI50 (RXF 393 renal): 239 nM
TGI (RXF 393 renal): 918 nM
GI50 (NCI/ADR-RES ovarian): 1460 nM
TGI (NCI/ADR-RES ovarian): 4020 nM
GI50 (OVCAR-8 ovarian): 368 nM
TGI (OVCAR-8 ovarian): 2090 nM
GI50 (SK-MEL-5 melanoma): 243 nM
TGI (SK-MEL-5 melanoma): 457 nM
GI50 (ACHN renal): 600 nM
TGI (ACHN renal): 2620 nM
GI50 (NCI-H23 lung): 790 nM
TGI (NCI-H23 lung): 4450 nM
GI50 (MOLT-4 leukemia): 164 nM
TGI (MOLT-4 leukemia): 303 nM
GI50 (SR leukemia): 31 nM
TGI (SR leukemia): 105 nM
GI50 (HT29 colon): 563 nM
TGI (HT29 colon): 2560 nM
GI50 (UACC-257 melanoma): 375 nM
TGI (UACC-257 melanoma): 1380 nM
GI50 (UO-31 renal): 1660 nM
TGI (UO-31 renal): 13100 nM
GI50 (OVCAR-3 ovarian): 936 nM
TGI (OVCAR-3 ovarian): 3130 nM
GI50 (SK-OV-3 ovarian): 1500 nM
TGI (SK-OV-3 ovarian): 5100 nM
GI50 (MDA-MB-435 melanoma): 652 nM
TGI (MDA-MB-435 melanoma): 2400 nM
GI50 (BT-549 breast): 467 nM
TGI (BT-549 breast): 3320 nM
GI50 (LOX IMVI melanoma): 357 nM
TGI (LOX IMVI melanoma): 1050 nM
GI50 (HOP-92 NSCLC): 256 nM
TGI (HOP-92 NSCLC): 920 nM
GI50 (RPMI-8226 leukemia): 20.5 nM
TGI (RPMI-8226 leukemia): 45.3 nM
GI50 (MALME-3M melanoma): 109 nM
TGI (MALME-3M melanoma): 255 nM
GI50 (HCC-2998 colon): 558 nM
TGI (HCC-2998 colon): 1940 nM
GI50 (NCI-H522 lung): 673 nM
TGI (NCI-H522 lung): 2680 nM
GI50 (HCT-116 colon): 295 nM
TGI (HCT-116 colon): 1190 nM
GI50 (DU-145 prostate): 338 nM
TGI (DU-145 prostate): 6410 nM
GI50 (PC-3 prostate): 1040 nM
TGI (PC-3 prostate): 16400 nM
GI50 (M14 melanoma): 658 nM
TGI (M14 melanoma): 5660 nM
GI50 (OVCAR-5 ovarian): 727 nM
TGI (OVCAR-5 ovarian): 5000 nM
GI50 (SNB-75 CNS): 1130 nM
TGI (SNB-75 CNS): 13700 nM
GI50 (OVCAR-4 ovarian): 1330 nM
TGI (OVCAR-4 ovarian): 3630 nM
GI50 (HS 578T breast): 271 nM
TGI (HS 578T breast): 1070 nM
GI50 (K-562 leukemia): 185 nM
TGI (K-562 leukemia): 1160 nM
GI50 (TK-10 renal): 441 nM
TGI (TK-10 renal): 3820 nM
GI50 (CAKI-1 renal): 918 nM
TGI (CAKI-1 renal): 2950 nM
GI50 (NCI-H322M lung): 1550 nM
TGI (NCI-H322M lung): 6500 nM
GI50 (SF-539 CNS): 1630 nM
TGI (SF-539 CNS): 14800 nM
GI50 (U251 glioblastoma): 607 nM
TGI (U251 glioblastoma): 1910 nM
GI50 (NCI-H226 lung): 1070 nM
TGI (NCI-H226 lung): 4880 nM
GI50 (CCRF-CEM leukemia): 190 nM
TGI (CCRF-CEM leukemia): 368 nM
GI50 (MCF7 breast): 404 nM
TGI (MCF7 breast): 1940 nM
GI50 (IGROV1 ovarian): 363 nM
TGI (IGROV1 ovarian): 1720 nM
GI50 (HCT-15 colon): 1440 nM
TGI (HCT-15 colon): 9090 nM
GI50 ([…]-0 renal): 2100 nM
TGI (786-0 renal): 14900 nM
GI50 (NCI-H460 NSCLC): 352 nM
TGI (NCI-H460 NSCLC): 7660 nM
GI50 (SF-295 CNS): 878 nM
TGI (SF-295 CNS): 2110 nM
GI50 (HL-60(TB) leukemia): 206 nM
TGI (HL-60(TB) leukemia): 350 nM
GI50 (EKVX NSCLC): 2860 nM
TGI (EKVX NSCLC): 90500 nM
GI50 (SF-268 CNS): 220 nM
TGI (SF-268 CNS): 719 nM
GI50 (SN12C renal): 1600 nM
TGI (SN12C renal): 3280 nM
GI50 (MDA-MB-231 breast): 511 nM
TGI (MDA-MB-231 breast): 2860 nM
GI50 (T-47D breast): 487 nM
TGI (T-47D breast): 1220 nM
GI50 (A549 NSCLC): 1910 nM
TGI (A549 NSCLC): 14700 nM
GI50 (HOP-62 NSCLC): 785 nM
TGI (HOP-62 NSCLC): 3620 nM
GI50 (KM12 colon): 2240 nM
TGI (KM12 colon): 19900 nM
GI50 (SNB-19 CNS): 1780 nM
TGI (SNB-19 CNS): 6060 nM
GI50 (MDA-MB-468 breast): 244 nM
TGI (MDA-MB-468 breast): 713 nM
GI50 (SW-620 colon): 521 nM
TGI (SW-620 colon): 2160 nM
